Laboratory results: ChEMBL document CHEMBL3627688, “Structure-based hybridization, synthesis and biological evaluation of novel tetracyclic heterocyclic azathioxanthone analogues as potential antitumor agents” (Eur J Med Chem, 2015)

Experiments:
SK-MEL-28 = test: Growth inhibition of human SK-MEL-28 cells assessed as cell growth at 10 uM incubated for 48 hrs by sulforhodamine B assay; format: functional; settings: SK-MEL-28, 48 h, read-out: Activity
SK-MEL-2 = test: Growth inhibition of human SK-MEL-2 cells assessed as cell growth at 10 uM incubated for 48 hrs by sulforhodamine B assay; format: functional; settings: SK-MEL-2, 48 h, read-out: Activity
Malme-3M = test: Growth inhibition of human MALME-3M cells assessed as cell growth at 10 uM incubated for 48 hrs by sulforhodamine B assay; format: functional; settings: read-out: Activity
SNB-19 = test: Growth inhibition of human SNB19 cells assessed as cell growth at 10 uM incubated for 48 hrs by sulforhodamine B assay; format: functional; settings: SNB-19, 48 h, read-out: Activity
NCI-H460 = test: Growth inhibition of human NCI-H460 cells assessed as cell growth at 10 uM incubated for 48 hrs by sulforhodamine B assay; format: functional; settings: NCI-H460, 48 h, read-out: Activity
NCI-H322M = test: Growth inhibition of human NCI-H322M cells assessed as cell growth at 10 uM incubated for 48 hrs by sulforhodamine B assay; format: functional; settings: read-out: Activity
NCI-H23 = test: Growth inhibition of human NCI-H23 cells assessed as cell growth at 10 uM incubated for 48 hrs by sulforhodamine B assay; format: functional; settings: NCI-H23, 48 h, read-out: Activity
HOP-62 = test: Growth inhibition of human HOP62 cells assessed as cell growth at 10 uM incubated for 48 hrs by sulforhodamine B assay; format: functional; settings: HOP-62, 48 h, read-out: Activity
[1] = Growth inhibition of human RPMI8226 cells assessed as cell growth at 10 uM incubated for 48 hrs by sulforhodamine B assay; format: functional; settings: RPMI-8226, 48 h, read-out: Activity
HL-60(TB) = test: Growth inhibition of human HL-60(TB) cells assessed as cell growth at 10 uM incubated for 48 hrs by sulforhodamine B assay; format: functional; settings: HL-60, 48 h, read-out: Activity
CCRF-CEM = test: Growth inhibition of human CCRF-CEM cells assessed as cell growth at 10 uM incubated for 48 hrs by sulforhodamine B assay; format: functional; settings: read-out: Activity
SK-MEL-5 = test: Growth inhibition of human SK-MEL-5 cells assessed as cell growth at 10 uM incubated for 48 hrs by sulforhodamine B assay; format: functional; settings: SK-MEL-5, 48 h, read-out: Activity
UACC-62 = test: Growth inhibition of human UACC62 cells assessed as cell growth at 10 uM incubated for 48 hrs by sulforhodamine B assay; format: functional; settings: UACC-62, 48 h, read-out: Activity
IGROV-1 = test: Growth inhibition of human IGROV1 cells assessed as cell growth at 10 uM incubated for 48 hrs by sulforhodamine B assay; format: functional; settings: IGROV-1, 48 h, read-out: Activity
OVCAR-3 = test: Growth inhibition of human OVCAR3 cells assessed as cell growth at 10 uM incubated for 48 hrs by sulforhodamine B assay; format: functional; settings: OVCAR-3, 48 h, read-out: Activity
SK-OV-3 = test: Growth inhibition of human SKOV3 cells assessed as cell growth at 10 uM incubated for 48 hrs by sulforhodamine B assay; format: functional; settings: SK-OV-3, 48 h, read-out: Activity
A498 = test: Growth inhibition of human A498 cells assessed as cell growth at 10 uM incubated for 48 hrs by sulforhodamine B assay; format: functional; settings: A498, 48 h, read-out: Activity
ACHN = test: Growth inhibition of human ACHN cells assessed as cell growth at 10 uM incubated for 48 hrs by sulforhodamine B assay; format: functional; settings: read-out: Activity
PC-3 = test: Growth inhibition of human PC3 cells assessed as cell growth at 10 uM incubated for 48 hrs by sulforhodamine B assay; format: functional; settings: PC-3, 48 h, read-out: Activity
DU-145 [2] = test: Growth inhibition of human DU145 cells assessed as cell growth at 10 uM incubated for 48 hrs by sulforhodamine B assay; format: functional; settings: DU-145, 48 h, read-out: Activity
MCF7 = test: Growth inhibition of human MCF7 cells assessed as cell growth at 10 uM incubated for 48 hrs by sulforhodamine B assay; format: functional; settings: MCF7, 48 h, read-out: Activity
MDA-MB-231 = test: Growth inhibition of human MDA-MB-231/ATCC cells assessed as cell growth at 10 uM incubated for 48 hrs by sulforhodamine B assay; format: functional; settings: MDA-MB-231, 48 h, read-out: Activity
[3] = Growth inhibition of human BT549 cells assessed as cell growth at 10 uM incubated for 48 hrs by sulforhodamine B assay; format: functional; settings: BT-549, 48 h, read-out: Activity
MDA-MB-468 = test: Growth inhibition of human MDA-MB-468 cells assessed as cell growth at 10 uM incubated for 48 hrs by sulforhodamine B assay; format: functional; settings: MDA-MB-468, 48 h, read-out: Activity
DU-145 [4] = test: Antiproliferative activity against human DU145 cells assessed as cell viability incubated for 72 hrs by MTT assay; format: functional, cell-based; settings: DU-145, 72 h
[5] = Growth inhibition of human EKVX cells assessed as cell growth at 10 uM incubated for 48 hrs by sulforhodamine B assay; format: functional; settings: read-out: Activity

With `O=c1c2ccc(Cl)cc2sc2c(Cl)nc3ccccc3c12` the growth at 10 µM (SK-MEL-28) was 102%, the growth at 10 µM (SK-MEL-2) was 95.5% and the growth at 10 µM (Malme-3M) was 95.9%. For the same molecule, the growth at 10 µM (SNB-19) was 108%, the growth at 10 µM (NCI-H460) was 103% and the growth at 10 µM (NCI-H322M) was 100%. The growth at 10 µM (NCI-H23) was 85.1%, the growth at 10 µM (HOP-62) was 82% and the growth at 10 µM [1] was 100%. It also gave a growth at 10 µM (HL-60(TB)) of 99.3%, a growth at 10 µM (CCRF-CEM) of 93.1% and a growth at 10 µM (SK-MEL-5) of 97.4%. The growth at 10 µM (UACC-62) was 89.7%, the growth at 10 µM (IGROV-1) was 96.1% and the growth at 10 µM (OVCAR-3) was 111%. For the same molecule, the growth at 10 µM (SK-OV-3) was 101%, the growth at 10 µM (A498) was 106% and the growth at 10 µM (ACHN) was 86.8%. The growth at 10 µM (PC-3) was 91.6%, the growth at 10 µM (DU-145 [2]) was 114% and the growth at 10 µM (MCF7) was 82.6%. For the same molecule, the growth at 10 µM (MDA-MB-231) was 84.3%, the growth at 10 µM [3] was 110% and the growth at 10 µM (MDA-MB-468) was 98.6%. For the same molecule, the IC50 (DU-145 [4]) was greater than 15 µM.

With `O=C(O)c1c(Sc2ccc(Cl)cc2)c(O)nc2ccccc12` the growth at 10 µM (SK-MEL-28) was 99%, the growth at 10 µM (SK-MEL-2) was 120% and the growth at 10 µM (Malme-3M) was 107%. For the same molecule, the growth at 10 µM (SNB-19) was 97.2%, the growth at 10 µM (NCI-H460) was 104% and the growth at 10 µM (NCI-H322M) was 101%. For the same molecule, the growth at 10 µM (NCI-H23) was 92.6%, the growth at 10 µM (HOP-62) was 116% and the growth at 10 µM [5] was 89.5%. The growth at 10 µM [1] was 98.1%, the growth at 10 µM (HL-60(TB)) was 106% and the growth at 10 µM (CCRF-CEM) was 98.3%. The growth at 10 µM (SK-MEL-5) was 98.1%, the growth at 10 µM (UACC-62) was 102% and the growth at 10 µM (IGROV-1) was 104%. It also gave a growth at 10 µM (OVCAR-3) of 121%, a growth at 10 µM (ACHN) of 113% and a growth at 10 µM (PC-3) of 93.2%. The growth at 10 µM (DU-145 [2]) was 115%, the growth at 10 µM (MCF7) was 92% and the growth at 10 µM (MDA-MB-231) was 95.7%. For the same molecule, the growth at 10 µM [3] was 124%, the growth at 10 µM (MDA-MB-468) was 105% and the IC50 (DU-145 [4]) was greater than 15 µM.
